Values quoted from earlier work, collected in publication PMC5812370 (Biochemistry, 2017).

Columns and labels:
[1] = biological target: uPAR·uPA protein–protein interaction (Homo sapiens, UniProt Q03405)
uPAR = uPAR (Homo sapiens, UniProt Q03405)
uPAR, sequence (Q03405 23-305 limits assumed): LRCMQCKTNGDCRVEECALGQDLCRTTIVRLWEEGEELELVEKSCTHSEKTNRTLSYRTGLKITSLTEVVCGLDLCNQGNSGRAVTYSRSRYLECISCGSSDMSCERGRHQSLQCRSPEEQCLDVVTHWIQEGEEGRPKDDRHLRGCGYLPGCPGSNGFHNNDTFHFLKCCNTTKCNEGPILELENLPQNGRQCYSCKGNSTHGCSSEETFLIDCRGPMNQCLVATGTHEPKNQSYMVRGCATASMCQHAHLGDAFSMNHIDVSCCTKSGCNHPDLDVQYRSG

uPAR·uPA protein–protein interaction, sequence (Q03405 23-305 limits assumed): as above

## O=C(O)c1cccc(Nc2cc(N3CCCCCC3)c3noc4c3c2C(=O)c2ccccc2-4)c1 [Compound 2]
[1]
  IC50 for inhibition of the uPAR·uPA complex (in words): single-digit micromolar
uPAR
  binding affinity to uPAR (in words): submicromolar
